Results as given in patent publication US4051241A.
Where two headings read alike, the source gives them in different places. Values belong to the compound of their own block, whether it stands above or below them.

Key:
[1] = human, in vivo
Procedure: The plasma of each volunteer was analyzed for organic solvent extractable radioactivity over a 24 hour period.

[2] = Metabolic effects: loss of urinary nitrogen and calcium
Procedure: Four normal subjects were admitted to a hospital metabolic ward and maintained on a constant diet for days 1-3, the equilibration period.
On days 4-9, the control period, the subjects were also kept on the same constant diet and their urine was collected every 24 hours and assayed for nitrogen and calcium, determined fluorometrically using the method of Henry, R. J., Clinical Chemistry Principles and Techniques, 3rd Edition, p.
On days 10-15, the treatment period, the subjects were still kept on the same constant diet, and 20 mg. (three subjects, 1, 2 and 3) and 12.5 mg. (one subject, 4) of 6-chloro-11β,17α,21-trihydroxypregna-1,4-diene-3,20-dione were daily orally administered in a single dose. The urine of the subjects was collected every 24 hours and assayed for nitrogen and calcium.
After 8 weeks had elapsed, subjects 1 and 2 were readmitted to the hospital metabolic ward.

[3] = tested on: HPA axis; settings: in vivo
Procedure: 1. Fasting plasma cortisol level at 6 A.M. on each of days 1-14, according to the method of Murphy et al., J. Clin. Endocr.
3. […] The urine of each of the subjects was collected at 6 hour intervals during the entire 14 day period and analyzed for 17-ketogenic steroids for the METP test.

[4] = described in U.S. Pat. No. 3,232,965; cited from earlier work
[5] = cited from earlier work
[6] = tested on: HPA axis
Procedure: (§1) Each of 39 normal human subjects was hospitalized on a clinical pharmacology ward for the entire time (14 days) while the procedures described herein were carried out.
(§2) The following tests were performed, except as otherwise indicated in Table II below, on each of the subjects:
Metyrapone (METP) test, according to a modification of the method described by Liddle et al., J. Clin. Endocr. […] The urine of each of the subjects was collected at 6 hour intervals during the entire 14 day period and analyzed for 17-ketogenic steroids for the METP test.
On each of days 5-11 the various corticosteroids were orally administered, all subjects receiving their daily single dosage of corticosteroids at 6 A.M. Tabulated below, in Table II, are the numbers of subjects receiving a particular dosage per day of a particular corticosteroid.

[7] = tested on: HPA axis; settings: oral, 6 A.M., 7 days
Procedure: as §1, §2
On each of days 5-11 the various corticosteroids were orally administered, all subjects receiving their daily single dosage of corticosteroids at 6 A.M. Tabulated below, in Table II, are the numbers of subjects receiving a particular dosage per day of a particular corticosteroid. The dosage regimens chosen reflect the relative potencies of the corticosteroids tested.

Plasma Half-Life [1]: 2 h
half-life, volunteer No. 1 [1]: approximately 110 minutes
half-life, volunteer No. 2 [1]: approximately 125 minutes
loss of nitrogen and calcium, comparison of 6-chloro compound with prednisolone ([2]; in vivo): minimized
SMILES: C[C@]12C=CC(=O)C=C1C(Cl)=C[C@@H]1[C@@H]2[C@@H](O)C[C@@]2(C)[C@H]1CC[C@]2(O)C(=O)CO
unwanted side-effects associated with HPA axis suppression [3]: not present
action [4]: cortisone like (anti-inflammatory) action

SMILES: C[C@]12C=CC(=O)C=C1CC[C@H]1[C@@H]3C[C@@H](O)[C@](O)(C(=O)CO)[C@@]3(C)C[C@H](O)[C@@]12F [9α-Fluoro-16α-hydroxyprednisolone, 9α-fluoro-11β,16α,17α,21-tetrahydroxypregna-1,4-diene-3,20-dione]
Plasma Half-Life ([5]; in vivo): ≥ 3.33 h

subjects showing a normal metyrapone test ([6]; in vivo): none
SMILES: C[C@H]1C[C@H]2[C@@H]3CCC4=CC(=O)C=C[C@]4(C)[C@@]3(F)[C@@H](O)C[C@]2(C)[C@@]1(O)C(=O)CO [9α-Fluoro-16β-methylprednisolone]

SMILES: C[C@]12C=CC(=O)C=C1CC[C@@H]1[C@@H]2[C@@H](O)C[C@@]2(C)[C@H]1CC[C@]2(O)C(=O)CO [Prednisolone]
loss of nitrogen and calcium, comparison of 6-chloro compound with prednisolone ([2]; equipotent doses, subjects 1 and 2): greater loss of both nitrogen and calcium
Normal/Total A.M. Plasma Cortisol ([7]; 5.0 mg per day): 3/3
Normal/Total A.M. Plasma Cortisol ([7]; 10.0 mg per day): 3/3
Normal/Total METP Response ([6]; 25.0 mg per day, oral, 6 A.M., 7 days): 3/3
Plasma Half-Life ([5]; Melby, Ann. Int. Med., 81:505-512, 1974): ≥ 3.33 h
